Measured values: patent publication US8927723B2, “Preparation of pyridonecarboxylic acid antibacterials” (AbbVie, Inc., priority 2004, dated 2015)
Values after ≈ are worked out from the molar mass of the structure shown.

Assay: solubility of compounds having formula (VII) in ethyl acetate
Conditions: organic solvent or mixture

solubility: 6400 µg/mL (≈ 12.7 mM)
Compound: CCOC(=O)c1cn(-c2nc(N)c(F)cc2F)c2cc(N3CC(OC(=O)C(C)C)C3)c(F)cc2c1=O [CH(CH3)2, ethyl 1-(6-amino-3,5-difluoropyridin-2-yl)-6-fluoro-7-(3-(isobutyryloxy)azetidin-1-yl)-4-oxo-1,4-dihydroquinoline-3-carboxylate]
